Results: article PMC3914206

Tests used:
Assay type in all cases: binding
Settings in all cases: Compound Concentration 10 µM
panel of 442 kinases [1] = target: T1, panel of 442 kinases (Homo sapiens, UniProt P49761)
T1 construct: purchased KINOMEscan
From the text: (§1) We assessed the selectivity of members of this scaffold using the KINOMEscan methodology across a near comprehensive panel of 442 kinases [[18,27]].

panel of 442 kinases [2] = target: T2, panel of 442 kinases (Homo sapiens, UniProt Q9UF33)
T2 sequence (Q9UF33 23-1036): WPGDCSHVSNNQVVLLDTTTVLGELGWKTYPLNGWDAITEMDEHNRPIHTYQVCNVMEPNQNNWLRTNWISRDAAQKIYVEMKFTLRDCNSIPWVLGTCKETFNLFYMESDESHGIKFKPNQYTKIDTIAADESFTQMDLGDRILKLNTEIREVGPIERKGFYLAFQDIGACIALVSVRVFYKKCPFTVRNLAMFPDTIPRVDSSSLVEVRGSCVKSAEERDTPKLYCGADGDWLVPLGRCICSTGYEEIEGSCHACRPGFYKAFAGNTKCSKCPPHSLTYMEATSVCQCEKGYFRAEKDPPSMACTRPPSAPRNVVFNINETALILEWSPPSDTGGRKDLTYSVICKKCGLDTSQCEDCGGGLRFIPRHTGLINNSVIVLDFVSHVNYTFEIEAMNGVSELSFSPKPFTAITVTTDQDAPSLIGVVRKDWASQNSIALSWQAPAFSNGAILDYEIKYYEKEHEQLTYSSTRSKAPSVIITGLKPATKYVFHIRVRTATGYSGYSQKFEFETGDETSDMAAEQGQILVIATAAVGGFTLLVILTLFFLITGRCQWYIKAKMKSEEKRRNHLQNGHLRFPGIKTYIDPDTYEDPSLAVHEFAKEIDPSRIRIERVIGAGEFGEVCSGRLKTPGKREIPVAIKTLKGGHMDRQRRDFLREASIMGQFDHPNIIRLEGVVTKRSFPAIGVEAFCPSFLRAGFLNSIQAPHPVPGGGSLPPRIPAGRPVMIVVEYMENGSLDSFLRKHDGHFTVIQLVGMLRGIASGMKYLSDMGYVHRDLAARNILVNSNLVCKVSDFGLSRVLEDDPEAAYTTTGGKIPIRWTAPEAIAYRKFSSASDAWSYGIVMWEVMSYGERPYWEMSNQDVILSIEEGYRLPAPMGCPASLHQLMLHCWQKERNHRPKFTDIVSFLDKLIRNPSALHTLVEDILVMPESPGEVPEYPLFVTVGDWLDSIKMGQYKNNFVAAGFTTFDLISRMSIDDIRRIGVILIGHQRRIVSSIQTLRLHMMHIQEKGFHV
From the text: as §1

panel of 442 kinases [3] = target: T3, panel of 442 kinases (Homo sapiens, UniProt Q9Y2K2)
T3 construct: purchased KINOMEscan
T3 sequence (Q9Y2K2 whole entry): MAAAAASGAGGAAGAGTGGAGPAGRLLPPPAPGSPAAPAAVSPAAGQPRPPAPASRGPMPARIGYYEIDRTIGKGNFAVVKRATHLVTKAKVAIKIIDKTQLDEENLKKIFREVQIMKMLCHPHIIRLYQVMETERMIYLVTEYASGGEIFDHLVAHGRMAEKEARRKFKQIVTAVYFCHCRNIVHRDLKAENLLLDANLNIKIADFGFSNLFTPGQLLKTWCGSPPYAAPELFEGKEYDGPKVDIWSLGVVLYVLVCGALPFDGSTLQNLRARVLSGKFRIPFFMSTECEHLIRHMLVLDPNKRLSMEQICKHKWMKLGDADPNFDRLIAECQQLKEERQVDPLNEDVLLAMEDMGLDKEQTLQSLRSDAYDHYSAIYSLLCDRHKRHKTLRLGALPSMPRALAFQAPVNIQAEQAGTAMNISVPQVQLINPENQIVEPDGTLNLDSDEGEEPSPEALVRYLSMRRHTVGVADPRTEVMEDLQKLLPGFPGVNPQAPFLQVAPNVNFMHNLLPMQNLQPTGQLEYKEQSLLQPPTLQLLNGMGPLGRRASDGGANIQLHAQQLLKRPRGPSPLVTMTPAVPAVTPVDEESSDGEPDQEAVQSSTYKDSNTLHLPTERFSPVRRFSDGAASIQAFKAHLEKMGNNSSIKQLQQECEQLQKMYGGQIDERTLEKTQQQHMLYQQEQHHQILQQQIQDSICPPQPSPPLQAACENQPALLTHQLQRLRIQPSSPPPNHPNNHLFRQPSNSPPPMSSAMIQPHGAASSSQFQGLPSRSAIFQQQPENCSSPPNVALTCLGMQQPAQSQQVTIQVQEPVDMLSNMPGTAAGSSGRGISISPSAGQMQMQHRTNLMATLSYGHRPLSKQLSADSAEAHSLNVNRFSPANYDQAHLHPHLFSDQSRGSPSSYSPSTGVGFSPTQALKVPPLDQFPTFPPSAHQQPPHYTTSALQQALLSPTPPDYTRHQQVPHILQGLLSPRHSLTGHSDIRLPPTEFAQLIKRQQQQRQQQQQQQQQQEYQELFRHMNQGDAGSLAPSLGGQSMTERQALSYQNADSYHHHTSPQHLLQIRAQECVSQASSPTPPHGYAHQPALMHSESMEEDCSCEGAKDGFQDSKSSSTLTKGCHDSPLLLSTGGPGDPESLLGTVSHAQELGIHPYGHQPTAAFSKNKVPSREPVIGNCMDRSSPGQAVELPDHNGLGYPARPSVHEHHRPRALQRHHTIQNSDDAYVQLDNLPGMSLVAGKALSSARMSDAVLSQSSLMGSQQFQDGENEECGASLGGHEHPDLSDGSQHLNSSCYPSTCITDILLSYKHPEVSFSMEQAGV
From the text: as §1

T1 sequence (P49761 whole entry): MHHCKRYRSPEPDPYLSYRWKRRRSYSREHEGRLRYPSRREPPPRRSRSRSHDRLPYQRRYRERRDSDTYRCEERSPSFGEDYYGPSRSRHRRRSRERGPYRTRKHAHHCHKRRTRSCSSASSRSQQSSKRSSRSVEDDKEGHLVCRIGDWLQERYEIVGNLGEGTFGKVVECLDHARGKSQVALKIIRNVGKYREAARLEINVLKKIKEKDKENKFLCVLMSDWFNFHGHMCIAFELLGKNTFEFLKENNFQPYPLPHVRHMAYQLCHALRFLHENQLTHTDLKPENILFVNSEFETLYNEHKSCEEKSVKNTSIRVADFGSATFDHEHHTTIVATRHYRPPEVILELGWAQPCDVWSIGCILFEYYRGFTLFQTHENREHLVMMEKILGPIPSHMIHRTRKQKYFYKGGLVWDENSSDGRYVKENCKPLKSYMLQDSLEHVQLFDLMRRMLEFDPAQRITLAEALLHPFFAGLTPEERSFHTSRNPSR

SMILES	KINOMEscan: CLK3 (panel of 442 kinases [1])	KINOMEscan: EPHA6 (panel of 442 kinases [2])	KINOMEscan: QSK (panel of 442 kinases [3])
COc1cc(C(=O)N2CCC(N3CCN(C)CC3)CC2)ccc1Nc1ncc2c(n1)N1CCc3cccc(c31)C(=O)N2C [Compound 24]	80	97	
CCOc1cc(C(=O)N2CCC(N3CCN(C)CC3)CC2)ccc1Nc1ncc2c(n1)N(C1CCCC1)c1ccccc1C(=O)N2C [Compound 26]	100	100	100
COc1cc(C(=O)N2CCC(N3CCN(C)CC3)CC2)ccc1Nc1ncc2c(n1)N(C1CCCC1)c1ccccc1C(=O)N2C [Compound 25, 11-cyclopentyl-2-((2-methoxy-4-(4-(4-methylpiperazin-1-yl)piperidine-1-carbonyl)phenyl)amino)-5-methyl-5H-benzo[e]pyrimido[5,4-b][1,4]diazepin-6(11H)-one]	100	100	100
COc1cc(C(=O)N2CCC(N3CCN(C)CC3)CC2)ccc1Nc1ncc2c(n1)N(C)c1ccccc1C(=O)N2C [15 (LRRK2-IN-1)]	95	89	100
